From paper PMC7591571, “Identification of a juvenile-hormone signaling inhibitor via high-throughput screening of a chemical library” (Scientific Reports, 2020) come the findings set out here.

Experiment [1] has as its system T1, JH receptor, methoprene-tolerant protein (Met) / SRC, endogenous in BmN_JF&AR cells.
T1 construct: gene Met1; endogenous receptor of BmN cells; receptor not overexpressed; Met paralogue not specified
Description: kJHRE luciferase reporter assay in stable BmN_JF&AR cells. It counts as cell-based. To be noted: inhibition of 1 nM JH I response; 25 °C; 20 h; competitive antagonist-like; pathway read-out, direct binding to receptor not demonstrated; read-out: EC50 (the source's name). On the technique in general: A reporter such as luciferase makes a cellular process visible.

The test system is the same in experiment [2]. The experiment is described as above. It counts as cell-based. To be noted: agonist, 25 °C, 20 h, pathway read-out.

pEC50, pIC50: −log10 of the molar value.

`CC(C)(C)c1ccc(OCCn2cncn2)c(Cl)c1` [JHSI48, N-[2-(4-tert-butyl-2-chlorophenoxy)ethyl]-1H-1,2,4-triazole]: the pIC50 in experiment [1] is 6.49.

The pEC50 is the negative decadic logarithm of the EC50, by convention in mol/L. Consider `CC/C(=C\CC/C(C)=C/C(=O)OC)CC[C@H]1O[C@@]1(C)CC` [JH I], for which the pEC50 in experiment [2] was 9.43.
